Reference: patent publication US8568973B2, “Cell-signaling assays” (Molecular Devices, LLC, priority 1999, dated 2013)
“Also recorded” adds a separate entry of the source.

Test system: T47D cells
Assay: Whole-cell cAMP luminescence polarization assay of modulators (FIG. 13)
Assay type: cell-based
Method: • (a) Preparation of 1:75 cAMP antibody working stock. Dilute the 300× cAMP antibody stock 1:75 in cAMP assay buffer (0.05 M HEPES, pH 7.5, 150 mM NaCl, 0.1% bovine gamma globulin) (e.g., by adding 14 μL of the 300× cAMP antibody stock to 1036 μL of cAMP assay buffer). 10 μL of this working stock solution will be added to the assay plate, as indicated in the plate layout in FIG. 9. • (b) Preparation of cAMP tracer working stock. Dilute the 500× cAMP tracer stock 1:125 in cAMP assay buffer (e.g., by adding 10 μL of the 500× cAMP tracer stock to 1240 μL of cAMP assay buffer). 10 μL of this working stock solution will be added to the assay plate, as indicated in the plate layout in FIG. 9. • (c) Preparation of cAMP calibration curve. Dilute the cAMP calibrator 1:25 in cAMP assay buffer (e.g., by adding 10 μL cAMP calibrator to 240 μL cAMP assay buffer) to give 10 μM cAMP calibrator or 400 pmol in final assay. Prepare seven 1:3 serial dilutions to give 3.33, 1.11, 0.37, 0.12, 0.041, 0.014, and 0.005 μM cAMP (133 to 0.125 pmol in final assay). • (d) Preparation of samples. […] A plastic plate cover may be used to prevent possible evaporation, but care should be taken with plastic plate sealers, which may introduce undesirable background fluorescence. • (e) Read plate using a light detection device capable of generating and detecting polarized light. […]

## CC(C)NCC(O)COc1cccc2ccccc12 (centres unmarked) [propranolol]
Cultured T47D cells, endogenous beta receptors, antagonist added to isoproterenol stimulation
  effect on isoproterenol-stimulated cAMP production: reversed; also recorded: inhibited

## CC(C)NCC(O)c1ccc(O)c(O)c1 (centres unmarked) [isoproterenol]
Cultured adherent T47D cells, whole cell preparation, forskolin protocol 20 μM final, 15 minutes at 37° C.
  cAMP production (cAMP levels): stimulates cAMP production; also recorded: stimulated
